Results reported in patent publication US20120041058A1, “COMPOSITION OF TRADITIONAL CHINESE MEDICINE FOR REDUCING BLOOD FAT AND PREPARATION METHOD THEREOF” (ANJI GREEN LIFE BIOTECH CO., LTD., priority 2009, published 2012).

Test system: acute high-lipid mouse model
Assay: Acute high-lipid mouse model resulted from egg yolk emulsion injection: serum cholesterol and triglycerides
Assay type: in vivo, ICR mice
Settings: for T-cho / Trig: ICR mice, oral 1 time/d for 14 d, blood 20 h after ip 75% egg yolk emulsion; for T-cho / Trig / Reduction rate of cholesterol / Reduction rate of triglyceride: dose 2 mg/mouse; for Reduction rate of cholesterol / Reduction rate of triglyceride: vs model mouse group, 14 d; for blood-lipid-lowering effect on the mouse model of high blood lipid caused by the egg yolk emulsion: after two weeks of oral administration, result in words
Description: The Treatment Efficiency of Blood-Lipid-Lowering Traditional Chinese Medicine Compositions Having Different Component Proportions on the Acute High-Lipid Mouse Models Resulted from Egg Yolk Emulsion Injection Male ICR mice of 20 g˜22 g are divided into several groups after 5 d adaptive feeding: control group, fed with normal saline; model group, fed with normal saline; positive control group, fed with Xuezhikang of 1000 mg/kg.

**Q.** What does the source list for C[C@@H]1CC[C@H]2[C@@H](C)C(=O)O[C@@H]3O[C@@]4(C)CC[C@@H]1[C@]32OO4 [Artemisinin, artemisinin]?
**A.** T-cho: 6.10 ± 3.20 mmol/L; Trig: 8.90 ± 4.00 mmol/L; Reduction rate of cholesterol: 25.1%; Reduction rate of triglyceride: 12.9%

**Q.** How did the T-cho turn out when C[C@H]1[C@H](OC(=O)CCC(=O)O)O[C@@H]2O[C@@]3(C)CC[C@H]4[C@H](C)CC[C@@H]1[C@@]24OO3 [Artesunate, artesunate] was run?
**A.** 8.32 ± 1.09 mmol/L

**Q.** What about the Trig of the same molecule?
**A.** 10.72 ± 2.68 mmol/L

**Q.** And the “blood-lipid-lowering effect on the mouse model of high blood lipid caused by the egg yolk emulsion” value?
**A.** neither ursolic acid nor artesunate had the blood-lipid-lowering effect

**Q.** What about the “Reduction rate of cholesterol” value of the same molecule?
**A.** −2.21%

**Q.** What about the “Reduction rate of triglyceride” value of the same molecule?
**A.** −4.89%

**Q.** For C[C@H]1[C@H](C)CC[C@]2(C(=O)O)CC[C@]3(C)C(=CC[C@@H]4[C@@]5(C)CC[C@H](O)C(C)(C)[C@@H]5CC[C@]43C)[C@H]12 [Ursolic acid, ursolic acid], which T-cho is on record?
**A.** 9.11 ± 1.49 mmol/L

**Q.** What about the Trig of the same molecule?
**A.** 13.37 ± 3.63 mmol/L

**Q.** What about the “blood-lipid-lowering effect on the mouse model of high blood lipid caused by the egg yolk emulsion” value of the same molecule?
**A.** neither ursolic acid nor artesunate had the blood-lipid-lowering effect

**Q.** What about the “Reduction rate of cholesterol” value of the same molecule?
**A.** −11.92%

**Q.** What about the “Reduction rate of triglyceride” value of the same molecule?
**A.** −30.82%
